From patent US11512107B2, “Methods for assembly of tetracyclic compounds by stereoselective C9-C10 bond formation” (Trustees of Dartmouth College, priority 2018, dated 2022)

Tests used:
U251 and U87 cells [1] = assay: Apoptosis by Annexin V / 7-AAD FACS analysis; assay type: cell-based, human; conditions: U251 and U87, 24 hours
Description: FIG. 3C is a flow cytometric analysis of U251 and U87 co-stained with Annexin V-FITC/7-AAD after treatment with Compound 100, Compound 101, TMZ, and vehicle control DMSO (n=4).
In order to elucidate the mechanism of this cell death, glioblastoma cells treated for 24 hours with Compound 100, Compound 101, TMZ, or DMSO control were analyzed for early and late apoptosis markers (Annexin V and 7-Aminoactinomycin D) by FACS analyses. […] Additionally, over a period of five days, morphological changes in U251 and U87 cells treated with Compound 100 and Compound 101 were tracked using the Incucyte live cell imaging system.

U251 and U87 cells [2] = assay: Growth inhibition and viable cell counts of glioblastoma-derived cell lines; assay type: cell-based, human; conditions: U251 and U87, after 24 hours, versus TMZ
Description: FIG. 3A-3B are line graphs depicting (A) dose dependent growth inhibition of U251 and U87 cells treated with Compound 100, Compound 101, TMZ, and vehicle control DMSO (n=4) and (B) viable cell counts of U251 and U87 cells treated with Compound 100, Compound 101, TMZ, and vehicle control DMSO determined every 24 hours for 96 hours (n=4)
To determine the biological effect of Compound 100 and Compound 101, human glioblastoma-derived cell lines U251 and U87 were treated with varying concentrations of Compound 100, Compound 101, temazolomide (TMZ; a standard of care chemotherapeutic agent), or vehicle-toxicity control, dimethylsulfoxide (DMSO) used at final volumes that were identical to those used to attain all concentrations tested of Compound 100 and Compound 101.

[3] = Initial in vivo toxicity studies
Source text: In comparison to 17β-estradiol, Compound 100 and Compound 101 have a unique profile for selective agonism of ERβ (FIG. 1).

[4] = test system: human neural stem cells as well as human astrocytes; assay: Cell viability of non-tumour neural cells; assay type: cell-based; conditions: at the equivalent concentration
ERβ [5] = target: ERβ (Homo sapiens, UniProt Q92731); assay: ERβ agonist assay (functional activity at estrogen receptors, FIG. 1); assay type: cell-based; conditions: for selectivity over ERα: ERβ over ERα, relative to 17β-estradiol; for EC50: read-out: EC50 ERβ agonism
Chain of ERβ (Homo sapiens, UniProt Q92731) (Q92731 whole entry): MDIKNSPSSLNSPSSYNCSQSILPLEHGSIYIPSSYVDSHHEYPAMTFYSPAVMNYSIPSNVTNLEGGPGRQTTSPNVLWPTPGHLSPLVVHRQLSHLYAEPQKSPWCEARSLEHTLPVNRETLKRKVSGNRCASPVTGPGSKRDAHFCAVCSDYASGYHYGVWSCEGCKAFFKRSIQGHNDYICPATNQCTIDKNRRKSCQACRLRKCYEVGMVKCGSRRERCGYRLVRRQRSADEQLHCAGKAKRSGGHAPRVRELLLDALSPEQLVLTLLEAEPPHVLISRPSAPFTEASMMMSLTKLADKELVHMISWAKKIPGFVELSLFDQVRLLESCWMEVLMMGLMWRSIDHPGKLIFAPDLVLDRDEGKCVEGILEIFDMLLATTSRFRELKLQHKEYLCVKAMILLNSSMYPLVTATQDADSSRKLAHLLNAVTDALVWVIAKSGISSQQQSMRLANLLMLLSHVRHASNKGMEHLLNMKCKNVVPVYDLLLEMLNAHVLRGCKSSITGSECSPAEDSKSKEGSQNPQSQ
Description: FIG. 1 is a set of line graphs showing the results of ERβ and ERα agonist assays for Compounds 100 and 101.
Compounds 100 and 101 were evaluated for their functional activity at estrogen receptors (both ERα and ERβ). 17β-estradiol was used as a control, as it is appreciated to be a potent agonist of both ERα and ERβ.

ERβ [6] = assay: Alkaline phosphatase (ALP) activity in DU-145 prostate cancer cells expressing endogenous ERβ; assay type: cell-based, human; conditions: DU-145 cells, 24 hours, 5 μM
Description: FIG. 2 is a bar graph showing alkaline phosphatase activity in human DU-145 prostate cancer cells (17β-estradiol, Compound 100, and Compound 101 were evaluated at 5 μM).
The DU-145 prostate cancer cell line only expresses ERβ and can be used as a model to examine the activation of ERβ in the absence of any potential confounding signal driven by ERα. Alkaline phosphatase (ALP) expression is induced in an ER-dependent manner and has been used to characterize the activity of synthetic ER agonists and antagonists.
In order to examine the ability of Compound 100 and Compound 101 to activate ERβ in the context of a cell line expressing endogenous ERβ, DU-145 cells were treated for 24 hours with either 17β-estradiol, Compound 100, or Compound 101 and ALP activity derived from the cells was examined.

SMILES | induction of apoptosis, fold higher than TMZ or DMSO controls (U251 and U87 cells [1]) [fold] | inhibition of glioma cell growth (IC50): fold lower concentration compared to TMZ (U251 and U87 cells [2]) [fold] | in vivo toxicity [3] | cell viability of human neural stem cells and human astrocytes [4] | selectivity over ERα (ERβ [5]) [fold] | EC50 (ERβ [5]) [nM] | induction of ALP activity (ERβ [6])
C[C@]12CC[C@@]3(C)C(=C1C[C@@H](O)C2)CCc1cc(O)ccc13 [Compound 100, (9S,13R,16S)-9,13-dimethyl-7,9,11,12,13,15,16,17-octahydro-6H-cyclopenta[a]phenanthrene-3,16-diol] | 7 | 50 | neither compound is toxic | not affected | > 260 | 0.05 | 
C[C@@]12CC[C@]3(C)C(=C1C[C@H](O)C2)CCc1cc(O)ccc13 [Compound 101, (9R,13S,16R)-9,13-dimethyl-7,9,11,12,13,15,16,17-octahydro-6H-cyclopenta[a]phenanthrene-3,16-diol] | 7 | 50 | neither compound is toxic | not affected | ~6 | 1.9 | 
C[C@]12CC[C@@H]3c4ccc(O)cc4CC[C@H]3[C@@H]1CC[C@@H]2O [17β-estradiol] |  |  |  |  |  |  | effective in inducing ALP activity
